Laboratory results as given in BigSolDB 2.1.

Cc1ncc(CO)c(CO)c1O.Cl
solubility (mole fraction)
Conditions	278.15 K	283.15 K	288.15 K	293.15 K	298.15 K	303.15 K	308.15 K	313.15 K
in ethanol	0.000447	0.000484	0.000557	0.000651	0.000801	0.000989	0.00118	0.00143
in methanol	0.00221	0.00253	0.0028	0.00329	0.00373	0.00425	0.00486	0.00549
in water	0.0105	0.0123	0.0144	0.0168	0.0191	0.022	0.025	0.0286
